From patent US20220233713A1, “SONODYNAMIC THERAPY” (priority 2019, published 2022)
Structures can show the parent of a compound that is named as a salt.

System: BxPC-3 tumours
Test: In vivo BxPC-3 xenograft model, tumour growth
Parameters: species or system SCID mice
Conditions: 100 μL I.P. injection, Gem HCl 120 mg/kg (scaled clinical dose); FIG. 7
Experimental: All animals in these studies were treated humanely and in accordance with licensed protocols under the Animals (Scientific Procedures) Act 1986 (UK). BxPc-3 cells were maintained in RPMI 1640 media supplemented with 100 U/mL penicillin, […] streptomycin, and 10% fetal bovine serum (FBS) in a humidified 5% CO2 atmosphere at 37° C. Cells (1×10^6) were re-suspended in Matrigel® and implanted subcutaneously into the rear dorsum of SCID (C.B-17/IcrHan@Hsd-Prkdcscid) mice. Tumours reached treatable size within 3 weeks. Tumour measurements were taken daily using callipers. Once the tumours had reached an average volume of 150 mm^3 animals were randomly assigned into treatment groups. Animals were anaesthetised using isoflurane with medical grade oxygen as the carrier gas. […] As control groups, animals were treated with a 100 μL I.P injection of either (i) gemcitabine hydrochloride (120 mg/kg) or (ii) gemcitabine hydrochloride (120 mg/kg) and PTX (15 mg/kg). Ultrasound was applied directly to the tumour immediately following injection at an ultrasound frequency of 1 MHz, an ultrasound power density of 3.5 W/cm^2 and a duty cycle of 30% for 3.5 min. Tumour volume was measured using callipers and calculated using the formula: V=L×W×H/2.

Nc1ccn([C@@H]2O[C@H](CO)[C@@H](O)C2(F)F)c(=O)n1 [Gem HCl, gemcitabine hydrochloride]
tumour growth control: significantly controls tumour growth progression
